Results as given in EP4356928A1, “NUCLEOSIDE DIPHOSPHATE OR DIPHOSPHONATE PRODRUGS, OR NUCLEOSIDE ANALOGUE DIPHOSPHATE OR DIPHOSPHONATE PRODRUGS” (Universität Hamburg, priority 2022, dated 2024).
Read-outs that look alike come from different tables or passages of the source.

Experiments:
HIV-2 (ROD) [1] = assay: Inhibition of HIV-2 replication in wild-type CEM/0 cell cultures; format: cell-based; conditions: Human immunodeficiency virus 2, CCRF-CEM, read-out: Antiviral activity EC50 HIV-2 (ROD)
Method: (§1) All β-phosph(on)ate prodrug compounds were evaluated for their activity to inhibit the replication of HIV in HIV-1- and HIV-2-infected wild-type (CEM/0) cell cultures and in HIV-2-infected mutant thymidine kinase-deficient (CEM/TK^-) cell cultures (see Table 3).
(§2) Antiviral activity was determined in CD4^+ T-lymphocytes: 50% effective concentration (EC50 [µM]).

HIV-1 (HE) = assay: Inhibition of HIV-1 replication in wild-type CEM/0 cell cultures; format: cell-based; conditions: Human immunodeficiency virus 1, CCRF-CEM, read-out: Antiviral activity EC50 HIV-1 (HE)
Method: as §1, §2

HIV-2 (ROD) [2] = assay: Inhibition of HIV-2 replication in thymidine kinase-deficient CEM/TK- cell cultures; format: cell-based; conditions: for EC50: Human immunodeficiency virus 2, CEM-TK(-), read-out: Antiviral activity EC50 CEM/TK^- HIV-2 (ROD)
Method: as §1, §2

CD4^+ T-cell (CEM) = assay: Cytotoxicity: inhibition of CD4+ T-cell (CEM) proliferation; conditions: ratio between cell toxicity (CC50) and EC50 CEM/TK-
Method: (§3) In addition, a selectivity index (SI) was determined. The selectivity index is the ratio between cell toxicity and […], the ratio between cell toxicity (see Table 4) and EC50 CEM/TK^- (see right column of Table 3).
(§4) Table 4: Cytotoxicity (CC50 [µM]) and selectivity index (SI) of tested prodrug compounds.

[3] = as above; conditions: human
Method: as §3, §4

[4] = Chemical stability (hydrolysis half-life) in phosphate-buffered saline, RP-18 HPLC; format: physicochemical; conditions: phosphate buffer saline (PBS, pH 7.3); read-out: Half-lives PBS (converted)
Method: (§5) Stability tests regarding a number of differently substituted β-phosphate and β-phosphonate nucleoside prodrugs were conducted. The chemical and biological stability was tested in different media (phosphate-buffered saline PBS (pH 7.3), pig liver esterase (PLE), CEM cell extracts) and rated by determining the half-live of these compounds. The products of the respective hydrolysis were detected by analytical RP-18 HPLC.
(§6) Results of the hydrolysis experiments in different media (PBS (pH = 7.3), PLE (pig liver esterase) in PBS, or CEM-T cell extracts) are shown in Table 2.
(§7) Table 2: Half-lives (in hours) of the β-phosph(on)ate prodrug compounds of the invention in phosphate buffer saline (PBS, pH 7.3), PLE (100 units/mL pig liver esterase in PBS) and CEM/0 cell extracts. n.d. = not determined.

[5] = Stability (hydrolysis half-life) in CEM/0 cell extracts, RP-18 HPLC; format: in vitro ADME; conditions: human, read-out: Half-lives CEM T cell extracts (converted)
Method: as §5, §6, §7

[6] = Stability (hydrolysis half-life) against pig liver esterase in PBS, RP-18 HPLC; format: in vitro ADME; conditions: pH 7.3; 100 units/mL pig liver esterase in PBS; read-out: Half-lives PLE (converted)
Method: as §5, §6, §7

[7] = CD4+ T-lymphocytes (CEM/0), mean ±SD of n=2-3

With `Nc1nc(NC2CC2)c2ncn([C@H]3C=C[C@@H](CO)C3)c2n1` [ABC, abacavir, reference compound] the EC50 (HIV-2 (ROD) [1]; [7]) was 3510 ± 3250 nM, the EC50 (HIV-1 (HE); [7]) was 9390 ± 2450 nM and the EC50 (HIV-2 (ROD) [2]) was 1980 ± 860 nM. For the same compound, the “Selectivity index (SI)” value (CD4^+ T-cell (CEM)) was over 50 and the CC50 [3] was over 100000 nM.
Compound `Cc1cn([C@H]2C[C@H](N=[N+]=[N-])[C@@H](CO)O2)c(=O)[nH]c1=O` [AZT, zidovudine, reference compound] has an EC50 (HIV-2 (ROD) [1]) of 3.4 ± 2.1 nM, an EC50 (HIV-1 (HE); [7]) of 14 ± 8.5 nM and an EC50 (HIV-2 (ROD) [2]) of over 100000 nM. The “Selectivity index (SI)” value (CD4^+ T-cell (CEM)) was over 1 and the CC50 [3] was over 100000 nM.
In the case of `Cc1cn([C@H]2C[C@H](F)[C@@H](CO)O2)c(=O)[nH]c1=O` [FLT, alovudine, reference compound], the EC50 (HIV-2 (ROD) [1]) is reported as 4.3 ± 1.7 nM, the EC50 (HIV-1 (HE); [7]) is reported as 2.5 ± 2.9 nM and the EC50 (HIV-2 (ROD) [2]) is reported as over 100000 nM. The CC50 [3] was over 100000 nM.
`CCCCCCCCCCCCCCCCCCOP(=O)(OCCCC)OP(=O)(O)OC[C@@H]1C=C[C@H](n2cc(C)c(=O)[nH]c2=O)O1` (some centres unmarked) [No 16] gave a half-life [4] of over 41.7 days, an EC50 (HIV-2 (ROD) [1]) of 4.4 ± 1.3 nM and a half-life [5] of over 18 h. The EC50 (HIV-1 (HE)) was 33 ± 22 nM, the “improvement of antiviral activity as compared to the nucleoside analogue d4T” value (HIV-2 (ROD) [2]; HIV-2 in CEM/TK- cells, versus d4T) was 45.400 fold and the EC50 (HIV-2 (ROD) [2]) was 1.1 nM. The CC50 ([3]; cem cells) was 41300 nM and the half-life [6] was over 150 h.
`CCCCCCCCCCCCCCCCCCOP(=O)(OCC(CC)CCCC)OP(=O)(O)OC[C@@H]1C=C[C@H](n2cc(C)c(=O)[nH]c2=O)O1` (some centres unmarked) [No 17] gave a half-life [4] of over 41.7 days, an EC50 (HIV-2 (ROD) [1]) of 45 ± 46 nM and an EC50 (HIV-1 (HE)) of 71 ± 52 nM. For the same compound, the EC50 (HIV-2 (ROD) [2]) was 11 ± 0.71 nM, the “Selectivity index (SI)” value (CD4^+ T-cell (CEM)) was 4226 and the CC50 ([3]; cem cells) was 46500 nM.
With `CCCCCCCCCCCCCCCCCCP(=O)(OCCCC)OP(=O)(O)OC[C@@H]1C=C[C@H](n2cc(C)c(=O)[nH]c2=O)O1` (some centres unmarked) [No 18] the half-life [4] was over 125 days, the EC50 (HIV-2 (ROD) [1]) was 16 ± 8.3 nM and the half-life [5] was over 40 h. For the same compound, the EC50 (HIV-1 (HE)) was 31 ± 27 nM, the EC50 (HIV-2 (ROD) [2]) was 2.1 ± 3.4 nM and the “Selectivity index (SI)” value (CD4^+ T-cell (CEM)) was 20309. For the same compound, the CC50 ([3]; cem cells) was 42600 nM and the half-life [6] was over 150 h.
Compound `CCCCCCCCCCCCCCCCCCOP(=O)(OCCCC)OP(=O)(O)OC[C@H]1O[C@@H](n2cc(C)c(=O)[nH]c2=O)C[C@@H]1N=[N+]=[N-]` (some centres unmarked) [No 19] has a half-life [4] of 42.8 days, an EC50 (HIV-2 (ROD) [1]) of 25 ± 9 nM and a half-life [5] of over 8 h. For the same compound, the EC50 (HIV-1 (HE)) was 58 ± 50 nM, the EC50 (HIV-2 (ROD) [2]) was 43 ± 48 nM and the “Selectivity index (SI)” value (CD4^+ T-cell (CEM)) was 1112. The CC50 ([3]; cem cells) was 47800 nM and the half-life [6] was over 150 h.
Work on `CCCCCCCCCCCCCCCCCCP(=O)(OCCCC)OP(=O)(O)OC[C@H]1O[C@@H](n2cc(C)c(=O)[nH]c2=O)C[C@@H]1N=[N+]=[N-]` (some centres unmarked) [No 20] yielded a half-life [4] of over 83.3 days, an EC50 (HIV-2 (ROD) [1]) of 20 ± 8 nM and a half-life [5] of over 18 h. For the same compound, the EC50 (HIV-1 (HE)) was 87 ± 55 nM, the EC50 (HIV-2 (ROD) [2]) was 170 ± 130 nM and the “Selectivity index (SI)” value (CD4^+ T-cell (CEM)) was 487. For the same compound, the CC50 ([3]; cem cells) was 82700 nM and the half-life [6] was over 150 h.
For `CCCCCCCCCCCCCCCCCCOP(=O)(OCCCC)OP(=O)(O)OC[C@H]1O[C@@H](n2cc(C)c(=O)[nH]c2=O)C[C@@H]1F` (some centres unmarked) [No 21], the half-life [4] was over 41.7 days, the EC50 (HIV-2 (ROD) [1]) was 40 ± 28 nM and the half-life [5] was over 10 h. The EC50 (HIV-1 (HE)) was 6.7 ± 2.1 nM, the EC50 (HIV-2 (ROD) [2]) was 17 ± 16 nM and the “Selectivity index (SI)” value (CD4^+ T-cell (CEM)) was 3447. For the same compound, the CC50 ([3]; cem cells) was 58600 ± 19400 nM and the half-life [6] was over 150 h.
`CCCCCCCCCCCCCCCCCCP(=O)(OCCCC)OP(=O)(O)OC[C@H]1O[C@@H](n2cc(C)c(=O)[nH]c2=O)C[C@@H]1F` (some centres unmarked) [No 22] gave a half-life [4] of over 83.3 days, an EC50 (HIV-2 (ROD) [1]) of 42 ± 13 nM and an EC50 (HIV-1 (HE)) of 6.3 ± 4.6 nM. For the same compound, the EC50 (HIV-2 (ROD) [2]) was 15 ± 4 nM, the “Selectivity index (SI)” value (CD4^+ T-cell (CEM)) was 3620 and the CC50 ([3]; cem cells) was 54300 ± 15200 nM.
With `CCCCCCCCCCCCCCCCCCOP(=O)(OCCCC)OP(=O)(O)OC[C@H]1O[C@@H](n2ccc(=O)[nH]c2=O)C[C@@H]1F` (some centres unmarked) [No 23] the half-life [4] was 33.2 days, the EC50 (HIV-2 (ROD) [1]) was 150 ± 20 nM and the EC50 (HIV-1 (HE)) was 140 ± 71 nM. The EC50 (HIV-2 (ROD) [2]) was 210 ± 100 nM, the “Selectivity index (SI)” value (CD4^+ T-cell (CEM)) was 213 and the CC50 ([3]; cem cells) was 44800 nM.
Compound `CCCCCCCCCCCCCCCCCCP(=O)(OCCCC)OP(=O)(O)OC[C@H]1O[C@@H](n2ccc(=O)[nH]c2=O)C[C@@H]1F` (some centres unmarked) [No 24] has a half-life [4] of over 83.3 days, an EC50 (HIV-2 (ROD) [1]) of 76 ± 77 nM and a half-life [5] of over 20 h. The EC50 (HIV-1 (HE)) was 57 ± 9 nM, the EC50 (HIV-2 (ROD) [2]) was 51 ± 69 nM and the “Selectivity index (SI)” value (CD4^+ T-cell (CEM)) was 1159. For the same compound, the CC50 ([3]; cem cells) was 59100 ± 20800 nM and the half-life [6] was over 150 h.
Compound `CCCCCCCCCCCCCCCCCCOP(=O)(OCCCC)OP(=O)(O)OC[C@@H]1C=C[C@H](n2cnc3c(NC4CC4)nc(N)nc32)C1` (some centres unmarked) [No 25] has a half-life [4] of 2.33 days, an EC50 (HIV-2 (ROD) [1]) of 8.7 ± 0.4 nM and a half-life [5] of 6.7 h. The EC50 (HIV-1 (HE)) was 16 ± 4 nM, the EC50 (HIV-2 (ROD) [2]) was 3.1 ± 2.7 nM and the “Selectivity index (SI)” value (CD4^+ T-cell (CEM)) was 3387. For the same compound, the CC50 ([3]; cem cells) was 10500 ± 4600 nM and the half-life [6] was 41 h.
In the case of `CCCCCCCCCCCCCCCCCCP(=O)(OCCCC)OP(=O)(O)OC[C@@H]1C=C[C@H](n2cnc3c(NC4CC4)nc(N)nc32)C1` (some centres unmarked) [No 26], the half-life [4] is reported as over 41.7 days, the EC50 (HIV-2 (ROD) [1]) is reported as 26 ± 18 nM and the half-life [5] is reported as over 10 h. For the same compound, the EC50 (HIV-1 (HE)) was 34 ± 13 nM, the EC50 (HIV-2 (ROD) [2]) was under 1 nM and the “Selectivity index (SI)” value (CD4^+ T-cell (CEM)) was over 100000. The CC50 ([3]; cem cells) was over 100000 nM and the half-life [6] was over 150 h.
`Cc1cn([C@H]2C=C[C@@H](CO)O2)c(=O)[nH]c1=O` [d4T, stavudine, reference compound] gave an EC50 (HIV-2 (ROD) [1]) of 970 ± 500 nM, an EC50 (HIV-1 (HE)) of 330 ± 130 nM and an EC50 (HIV-2 (ROD) [2]) of over 50000 nM. For the same compound, the “Selectivity index (SI)” value (CD4^+ T-cell (CEM)) was over 1 and the CC50 [3] was over 50000 nM.
